Experimental data reported in the supplement of paper PMC10307832.

Experiments:
Experiment in all cases: relative viability (nuclei count vs DMSO), 5 days (fraction); higher = more cells survive
[1] = compound: C1/C(=C\C2=CC=CS2)/C(=O)/C(=C/C3=CC=CS3)/C1 + Cc1nc(NC(=O)N2CCC[C@H]2C(N)=O)sc1-c1ccnc(C(C)(C)C(F)(F)F)c1 [Alpelisib] (partner 2 µM)
In short: (§1)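 Each reported value is a median over duplicate plates. It expresses relative viability: treated-well nuclei count divided by vehicle-well nuclei count. Lung cancer cell lines in 1536-well plates were dosed by pin tool a day after seeding, alone with one drug or with a fixed anchor-drug dose plus five library-drug doses (not always all listed) in √10 steps, and nuclei were counted after 5 days.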

TPCA-1 + Olaparib = compound: C1=CC(=CC=C1C2=CC(=C(S2)NC(=O)N)C(=O)N)F [TPCA-1] + O=C(c1cc(Cc2n[nH]c(=O)c3ccccc23)ccc1F)N1CCN(C(=O)C2CC2)CC1 [Olaparib] (partner 8 µM)
In short: as §1

[2] = compound: C1/C(=C\C2=CC=CS2)/C(=O)/C(=C/C3=CC=CS3)/C1 + CC1(C)CCC(c2ccc(Cl)cc2)=C(CN2CCN(c3ccc(C(=O)NS(=O)(=O)c4ccc(N[C@H](CCN5CCOCC5)CSc5ccccc5)c(S(=O)(=O)C(F)(F)F)c4)cc3)CC2)C1 [Navitoclax] (partner 0.5 µM)
In short: as §1

Lestaurtinib + OSI-027 = compound: C[C@]12O[C@H](C[C@]1(O)CO)n1c3ccccc3c3c4c(c5c6ccccc6n2c5c31)CNC4=O [Lestaurtinib] + COc1cccc2cc(-c3nc([C@H]4CC[C@H](C(=O)O)CC4)n4ncnc(N)c34)[nH]c12 [OSI-027] (partner 0.5 µM)
In short: as §1

With UMC-11 the relative viability ([1]; first compound 0.2 µM) was 1.04, the relative viability ([1]; first compound 0.6325 µM) was 1.1 and the relative viability ([1]; first compound 2 µM) was 0.847. For the same cell line, the relative viability ([1]; first compound 20 µM) was 0.952, the relative viability (TPCA-1 + Olaparib; first compound 0.04 µM) was 0.365 and the relative viability (TPCA-1 + Olaparib; first compound 0.1265 µM) was 0.455. It also gave a relative viability (TPCA-1 + Olaparib; first compound 0.4 µM) of 0.405, a relative viability (TPCA-1 + Olaparib; first compound 1.265 µM) of 0.381 and a relative viability (TPCA-1 + Olaparib; first compound 4 µM) of 0.42. The relative viability ([2]; first compound 0.2 µM) was 0.302, the relative viability ([2]; first compound 0.6325 µM) was 0.362 and the relative viability ([2]; first compound 2 µM) was 0.307. The relative viability ([2]; first compound 20 µM) was 0.307, the relative viability (Lestaurtinib + OSI-027; first compound 0.005 µM) was 0.48 and the relative viability (Lestaurtinib + OSI-027; first compound 0.01581 µM) was 0.385. It also gave a relative viability (Lestaurtinib + OSI-027; first compound 0.05 µM) of 0.293, a relative viability (Lestaurtinib + OSI-027; first compound 0.1581 µM) of 0.283 and a relative viability (Lestaurtinib + OSI-027; first compound 0.5 µM) of 0.177.
